A melting point compilation (Tetko et al.; mined from patent text by program, amines drawn as free bases though some values may be those of a salt)

SMILES	melting point [°C]
Cn1cnc2c(Cl)ncnc21	205 to 207
CN1CCN(c2cc3nc4c(cc3cc2F)c(=O)c(C#N)cn4C)CC1	335
CC1(O)c2ccccc2CC12CCC1(CC2)OCCO1 (stereo not drawn)	140 to 143
CN1CCC(C2(O)c3ccccc3Sc3cc(F)ccc32)CC1 (stereo not drawn)	120 to 130
COC(=O)CCNC(=O)c1cc(NC(=O)c2ccc(C(=N)NC(=O)OC(C)(C)C)cc2)ccc1O	177 to 179
COc1cc(C(=O)N[C@H]2CCNC2)ccc1Nc1ncc2c(n1)N(C1CCCCC1)CC(F)(F)C(=O)N2C	195 to 198
C=C1N(c2ccc(Cl)cc2)C(=O)OC12CCN(CCC=C(c1ccc(F)cc1)c1ccc(F)cc1)CC2	186 to 188
CSCc1nn(-c2c(Cl)cc(C(F)(F)F)cc2Cl)nc1C=NC(C#N)=C(N)C#N	237 to 239
Cc1cc(O)c(Cc2ccc(C(C)C)cc2)c(C)c1N(Cc1ccccc1)C(=O)CC(C)(C)C	167 to 168
O=[N+]([O-])c1cc([N+](=O)[O-])c2[nH]c(C(F)(F)F)nc2c1N1CCCCC1	207 to 209
COC(=O)C(=O)c1ccc(OCCOc2cc3ccccc3c3ccccc23)cc1	147 to 148
O=C(Nc1ccc2[nH]ncc2c1)O[C@@H](c1cccc(I)c1)[C@@H]1CCCCN1	126
Cc1nsc(NC(=O)Cc2ccc3nn(CC(C)C)cc3c2)c1Cl	133 to 135
Cc1cc(-c2nc3ccccc3c(=O)n2-c2ccc(Br)cc2)ccc1OCCO	92 to 93
CC(C)=NOc1cc(Cl)ccc1C#N	83 to 84
CC(C)(C)OC(=O)NCCc1cccc(C(=O)c2cc(Cl)ccc2N)c1	128 to 129
CC(C)(C)OC(=O)NCCCn1c2c(c3ccc(NC(=O)C(=O)O)cc3c1=O)C(=O)c1ccccc1-2	267 to 268
FC(F)(F)c1ccc(Oc2ccc(CCNc3ncnc4nccnc34)cc2)nc1	147 to 150
Cc1cc(C2=NOC(c3cc(Cl)cc(Cl)c3)(C(F)(F)F)C2)ccc1C(=O)N(C)c1cncnc1 (stereo not drawn)	197 to 200
O=C(Nc1ccc2[nH]ncc2c1)O[C@H](c1ccc(Cl)c(Cl)c1)[C@H]1CCCCN1	210
O=[N+]([O-])c1ccc(-c2nc(-c3cccs3)no2)cc1	169 to 171
CSSc1ccc([N+](=O)[O-])cc1	42.9 to 44.3
CCOC(=O)C(C)Sc1ccc(-c2nc(=O)c3ccccc3s2)cn1 (stereo not drawn)	116
Cc1cc(-c2cc3c(cc2F)c(=O)c(C(=O)O)cn3C2CC2)cc(C)n1	300 to 302
Cc1cccc(-c2nc3c(C)cccn3c2-c2ccnc(-c3ccc(OCC(N)=O)cc3)c2)n1	183

SMILES	melting point [°C]
Cc1nn(C)c2c1Nc1ncccc1N(C)C2=O	141 to 142
COC(=O)CCC(=O)N[C@@H](CO)c1ccccc1	59 to 61
CCOC(=O)c1c(C)n(-c2ccc(N(CC)CC)cc2)c(C)c(C(=O)OCC)c1=O	138
CCCCCCCCCCCCSC1c2cccc(O)c2C(=O)c2c(O)cccc21	76
CCOCc1nc2c(N)nc3cc(N4CCOC4=O)ccc3c2n1CC(C)(C)O	> 250
O=C1N(Cc2ccc(OCc3ccccc3)cc2)c2ccccc2C12COc1cc3c(cc12)OCCO3 (stereo not drawn)	87 to 89
COc1ccc(C(=O)C(=O)c2ccccn2)cc1	97 to 98
CC(=O)Oc1c(Oc2ccccc2)c(Oc2ccccc2)c(OC(C)=O)c2ccccc12	173 to 174
N#Cc1ccccc1-n1nc(C2CCN(C#N)CC2)c2ccccc21	188 to 190
O=C(Nc1ccccc1NS(=O)(=O)c1ccc([N+](=O)[O-])cc1)c1ccc(F)cc1	265 to 266
Nc1cccc(Cc2ccccc2)n1	50.7
COC(=O)C(=Cc1ccccc1Cl)c1ccccc1	67 to 69
Cc1ccn2ncc(C(=O)NC3CN4CCC3CC4)c2c1 (stereo not drawn)	100 to 102
CC(C)(C)c1ccc(/C=C/C(=O)Nc2cccc(OCC(=O)O)c2)cc1	166 to 172
NS(=O)(=O)c1ccc(-c2[nH]c3ccccc3c2-c2ccc(F)cc2)cc1	228 to 230
Cc1ccnc(-c2ccc(CBr)cc2)n1	104 to 106
CCOC(OCC)N1CCNC1=N[N+](=O)[O-]	100 to 102
O=C(CC(F)(F)F)NNc1nccc(-c2ccc(OC3CCOCC3)c(Cl)c2)c1Cl	191
CCCCCCCCCCCCCCCCCCNC(=O)N1CCN(C(=O)c2ccc(CCl)cc2)CC1	68 to 70
CC(=O)N1C(=O)C2(CC2)c2ccc(N3C(=O)C4=C(CCCC4)C3=O)cc21	237 to 238
CN1C(=O)CN(CCC(=O)O)C1=O	109
Cc1cc(SC2=C(O)CC(CCc3ccc(O)cc3)(CCc3ccc(O)cc3)OC2=O)c(C(C)(C)C)cc1N	140 to 145
CCCCCCCCC(C(=O)O)C(O)(CC(=O)O)C(=O)O (stereo not drawn)	65.8 to 66.7
CC(C)(C)OC(=O)N1CCC=C(C(=O)O)C1	198 to 202
CC1(C)OC[C@H]([C@@H](CS(=O)(=O)c2ccc(Oc3ccc(Cl)cc3)cc2)N(O)C=O)O1	157 to 158

SMILES	melting point [°C]
CS(=O)(=O)Nc1cc(-c2ccc(S(C)(=O)=O)cc2)c(-c2ccc(F)cc2)s1	87 to 90
Cc1c[nH]c2c(CCC#N)cccc12	146 to 148
COc1c(N2CCC(N)C2)c(F)c(N)c2c(=O)c(C(=O)O)cn(C3CC3)c12 (stereo not drawn)	254 to 257
Cc1ccc(CN(C(=O)Nc2c(C(C)C)cccc2C(C)C)c2ccc(C(C)C)cc2)c(C)c1	100
CCCc1c(OCc2c(C)ccn3c(=O)c(CC(=O)O)cnc23)ccc(C(C)=O)c1O	191 to 193
O=C(O)CC(O)(Cn1cncn1)c1ccc(Cl)cc1Cl (stereo not drawn)	158 to 159
Cc1c(C)c2c(c(C)c1OCc1ccc(S(C)=O)cc1)C(c1ccc(C(C)C)cc1)C(C)(C)O2 (stereo not drawn)	132 to 134
Nc1cc(C(=O)N2CCC2)cc(C(F)(F)F)c1	154
CCCn1cc2c(C3C(=O)Nc4ccc(Br)cc43)ncnc2n1 (stereo not drawn)	> 300
COc1ccc([C@@H]2Sc3ccccc3N(CCN(C)C)C(=O)[C@@H]2OC(=O)Nc2ccc(F)cc2)cc1 (relative stereo)	153 to 154
CN(C)C1CCc2[nH]c3c(C(N)=O)cccc3c2C1 (stereo not drawn)	252 to 254
COc1ccc2nc(-c3ccc(OC)c(F)c3)cc(C#N)c2c1	189 to 190
Cn1ccnc1S(=O)(=O)c1ccccc1Cl	156 to 159
O=C(NCc1ccc(F)c(F)c1)c1ccnc(N2CCN(Cc3cccnc3)C2=O)c1	178 to 180
O=C(CCCO)NCc1ccccc1	70 to 72
O=C(Nc1ccc2cc(CN3CCCC3)ccc2c1)N1CCC(c2ccc(Cl)cc2)CC1	209 to 211
CCOCOC1CCC2(C)C(C1)C(=O)CC1C2CCC2(C)C1CC1OC3(CCC(C)CO3)C(C)C12 (stereo not drawn)	191 to 193
N#CCCCCOc1ccc(C=Cc2ccncc2)cc1	85 to 87
CCOC(=O)c1cc(=O)c2c(OCCOc3ccc(NC(C)=O)cc3)cccc2o1	220 to 222
COc1cc(Nc2c(C#N)cnc3cc(C#Cc4ccccn4)ccc23)c(Cl)cc1Cl	238 to 240
Cc1cccc(C)c1CCC(CCc1c[nH]cn1)CCc1c(C)cccc1C	147 to 150
COc1ccc(-n2nc3c4c([nH]cc-3c2=O)CCCCCCCC4)cc1	143 to 150
CCOC(=O)c1c(N2CCN(C(=O)c3cccs3)CC2)c2sccc2[nH]c1=O	252
CC(=O)NC[C@H]1CN(c2ccc(C(=O)c3cnc4ccccn34)c(F)c2)C(=O)O1	196 to 198
CCCc1nc2c(N)nc3ccccc3c2n1CC(=O)OCC	170 to 172

SMILES	melting point [°C]
COc1cc(C(O)P(=O)(OC)OC)cc(OC)c1OC (stereo not drawn)	103 to 104
BrC1COCOCC1Br (stereo not drawn)	37
COc1ccccc1-c1cc(C(=O)O)cc(-n2cnnn2)c1	214 to 215
Oc1ccc(-c2nnc(CCCCCc3ccccc3)o2)cc1	118 to 123
CCOC(=O)c1cc2cc(Oc3ccc(S(C)(=O)=O)nc3)cc(CC)c2[nH]1	140 to 141
O=C(Cc1ccc(C(=O)O)cc1)C(=O)c1ccccc1	192 to 195
NS(=O)(=O)c1nn(-c2ccccn2)cc1Br	145 to 146
CC1=C(C(O)c2ccc3c(c2)CN(C(N)=O)CC3)C(C)(C)CCC1 (stereo not drawn)	88.2 to 89.5
CN1CC(c2ccc(S(C)(=O)=O)cc2)=C(c2ccc(F)cc2)C1=O	111
O=S(=O)(CS(=O)(=O)/C(F)=C(/F)c1c(F)c(F)c(F)c(F)c1F)/C(F)=C(/F)c1c(F)c(F)c(F)c(F)c1F	193 to 195
CC(=CCO)c1ccc(-c2ccc(Br)cc2)cc1	145 to 148
O=S(=O)(Nc1n[nH]c(SCc2ccc(Oc3ccc(F)cc3)cc2)c1-c1ccccn1)c1c(Cl)cccc1Cl	185 to 186
COC(=O)c1cc(Nc2ccc(C)cc2)c(Nc2ccc(C)cc2)cc1C(=O)OC	170 to 172
Cc1ccc(S(=O)(=O)Nc2ccccc2C(=O)C2CC2)cc1	92 to 100
Cc1ccc(C(=O)C(=O)c2ccc(Br)cc2)cc1	132 to 135
CCOCc1nc2c(N)nc3cc(/C=C/S(=O)(=O)c4ccccc4)ccc3c2n1CCCOC(C)C	188 to 190
CC(C)(C)c1cc(OCc2ccc(C#N)cc2)cc(C(C)(C)C)c1	118 to 121
N#Cc1ccc(NC(=O)CN2CCC(Cc3ccc(F)cc3)CC2)cc1	113 to 116
Cc1cccc(-c2[nH]c(C(C)C)nc2-c2cccc(-c3cccc(S(C)(=O)=O)c3)c2)n1	97 to 100
CSc1sc(C(=O)N(C)C)c2c1-c1oncc1C(C)(C)C2	113 to 115
CC[C@@]1(C)OC(=O)C(c2ccc(F)c(F)c2)=C1c1ccc(S(C)(=O)=O)cc1	144
O=C(NNc1ccc([N+](=O)[O-])cc1)c1ccccc1	194 to 195
CN1CCN(c2ccc(C3(C)C(=O)Nc4ccc(Cl)cc43)c(Cl)c2)CC1 (stereo not drawn)	155
